This passage reports GI50 and TGI results from PubChem BioAssay (NCI).

Holding throughout (assay): NCI anticancer screen, dose series, 48 h
Experiment [1] concerns A549 NSCLC.
The subject of experiment [2] is OVCAR-3 ovarian.
Experiment [3] relates to EKVX NSCLC.
In experiment [4] the test system is NCI-H226 lung.
The test system of experiment [5] is M14 melanoma.
Experiment [6] has as its system HCT-116 colon.
The test system of experiment [7] is UACC-257 melanoma.
For experiment [8], the system named is U251 CNS.
Experiment [9] concerns T-47D breast.
Experiment [10] deals with MALME-3M melanoma.

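Five compound concentrations were applied to cells in 96-well plates for 48 hours; endpoints were derived by simple linear interpolation of the resulting dose-response curve. GI50 is the concentration that inhibits growth by half. TGI denotes the concentration required for complete inhibition of growth.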

As for `Cn1c(O)c(N=NC(N)=S)c2ccccc21`, the GI50 was 62.6 µM in experiment [1]; 33.4 µM in experiment [2]; 2.04 µM in experiment [3]; more than 100 µM in experiment [4]; 95.9 µM in experiment [5]; 40.9 µM in [6]. For the same compound, the GI50 in experiment [7] is 71.6 µM; in experiment [8] it was 46.7 µM; in experiment [9] it was 43.9 µM. The TGI in experiment [1], in experiment [2], in experiment [3], in experiment [4], in [5] and in experiment [6] was more than 100 µM throughout. Moreover, the TGI in experiment [7], in [8] and in [9] was more than 100 µM throughout.
Turning to `C[C@@H](c1ccccc1)N(CC#N)C1CCC[C@H]1O` (stereo partly drawn), the TGI in experiment [1], in experiment [2], in experiment [3], in [4], in experiment [10] and in experiment [5] was more than 100 µM each time. In addition, the TGI in experiment [6], in experiment [7] and in experiment [8] was more than 100 µM each time.
On to `O=C(c1ccccc1)c1ccccc1C(=O)c1ccccc1`, for which the GI50 in experiment [1] was 50 µM; in [2], 41 µM; in experiment [3], 28.6 µM; in experiment [4], 52.3 µM; in experiment [5], 31.9 µM; in [6], 29.8 µM. Besides, the GI50 was 40.5 µM in experiment [7], 39.4 µM in [8] and 47.2 µM in [9]. The TGI in [1], in experiment [2], in [3], in experiment [4], in [5] and in [6] was more than 100 µM in each case. In addition, the TGI in [7], in experiment [8] and in experiment [9] was more than 100 µM throughout.
Regarding `O=C(Nc1ccccc1C(=O)O)C(=O)C(C(=O)c1ccccc1-c1ccccc1)C1OC(=O)c2ccccc21` (stereo not drawn), the TGI was 81.9 µM in [1]; 34.3 µM in experiment [2]; 58.6 µM in experiment [3]; 29.3 µM in [4]; 28.6 µM in experiment [10]; 33.4 µM in [5]. In addition, the TGI was 36.5 µM in experiment [6], 37.7 µM in experiment [7] and 28.9 µM in experiment [8].
As for `CC(C)=CCC/C(C)=C/[C@H]1OC(=O)CC12C[C@H](O)C=CC2=O` (stereo partly drawn), the GI50 in [1] is 2.08 µM; in experiment [2], 0.455 µM; in experiment [3], 2.21 µM; in experiment [5], 0.32 µM; in experiment [6], 0.323 µM; in experiment [7], 1.2 µM. Besides, the GI50 in [8] is 0.752 µM; in [9], 0.194 µM. For the same compound, the TGI in experiment [1] amounted to 15.8 µM; in experiment [2], 0.848 µM; in experiment [3], 5.24 µM; in experiment [5], 0.833 µM; in experiment [6], 1.21 µM; in [7], 2.82 µM. Besides, the TGI worked out at 2.03 µM in experiment [8] and 0.692 µM in experiment [9].
For `N[C@H](C(=O)O)[C@@H](Cl)CC(=O)O`, the TGI in [1], in [2], in experiment [3], in experiment [4], in experiment [10] and in [5] was more than 100 µM in each case. Moreover, the TGI in [6], in experiment [7] and in experiment [8] was more than 100 µM throughout.
On to `Cc1ccc(SCC(O)=C2C(=O)CCCC2=O)cc1`, for which the TGI in experiment [1], in experiment [2], in [3], in experiment [4], in experiment [10] and in [5] was more than 100 µM each time. Further, the TGI in [6], in experiment [7] and in experiment [8] was more than 100 µM throughout.
`COc1cc2c3c(c1OC)Oc1ccc(cc1)CC1c4c(cc(OC)c(OC)c4Oc4ccc(cc4)CC3N(C)CC2)CCN1C` (stereo not drawn): the TGI is 70.4 µM in [1]; 44.7 µM in experiment [2]; more than 100 µM in experiment [3]; 55.5 µM in experiment [4]; 34.5 µM in experiment [10]; 33.2 µM in experiment [5]. Also, the TGI was found to be 27.2 µM in experiment [6], 28.6 µM in experiment [7] and 30.8 µM in experiment [8].
Take `O=C1C2=C(c3ccccc31)C(c1ccc(Cl)cc1)NC(=S)N2` (stereo not drawn): the TGI in experiment [1] is 39 µM; in experiment [2], 39.6 µM; in [3], more than 100 µM; in [4], 67.7 µM; in experiment [10], 79.4 µM; in experiment [5], 54.6 µM. The TGI is 28.3 µM in experiment [6], more than 100 µM in experiment [7] and 33.6 µM in [8].
Regarding `O=C1C2=C(c3ccccc31)C(c1ccc(F)cc1)N1C(=O)CCSC1=N2` (stereo not drawn), the TGI in experiment [1], in experiment [2], in [3], in experiment [4], in experiment [10] and in experiment [5] was more than 100 µM throughout. Further, the TGI in experiment [6], in [7] and in [8] was more than 100 µM throughout.
As for `S=C(Nc1ccccc1)N1CCn2c1nsc2=Nc1ccccc1`, the GI50 in experiment [1] was more than 100 µM; in [2], 90 µM; in experiment [3] it was more than 100 µM; in experiment [4], 61.6 µM; in experiment [5] it was more than 100 µM; in experiment [6], 34.6 µM. The GI50 in experiment [7] is more than 100 µM; in [8], 33 µM; in [9] it was more than 100 µM. Besides, the TGI in [1], in [2], in experiment [3], in [4], in experiment [5] and in experiment [6] was more than 100 µM in each case. The TGI in experiment [7], in experiment [8] and in experiment [9] was more than 100 µM in each case.
